Test results as given in US8178577B2, “Tricyclic derivatives as potent and selective histone deacetylase inhibitors” (Shenzhen Chipscreen Biosciences Ltd., priority 2008, dated 2012).

Columns and labels:
Assay type in all cases: cell-based
[1] = molecular target: T1, (Homo sapiens, UniProt Q9UBN7); test: Cytoblot assay of acetylation of α-tubulin in A549 cells; conditions: 24 hours
T1 construct: endogenous in cells; host or cells: A549
T1 sequence (Q9UBN7 1-1215): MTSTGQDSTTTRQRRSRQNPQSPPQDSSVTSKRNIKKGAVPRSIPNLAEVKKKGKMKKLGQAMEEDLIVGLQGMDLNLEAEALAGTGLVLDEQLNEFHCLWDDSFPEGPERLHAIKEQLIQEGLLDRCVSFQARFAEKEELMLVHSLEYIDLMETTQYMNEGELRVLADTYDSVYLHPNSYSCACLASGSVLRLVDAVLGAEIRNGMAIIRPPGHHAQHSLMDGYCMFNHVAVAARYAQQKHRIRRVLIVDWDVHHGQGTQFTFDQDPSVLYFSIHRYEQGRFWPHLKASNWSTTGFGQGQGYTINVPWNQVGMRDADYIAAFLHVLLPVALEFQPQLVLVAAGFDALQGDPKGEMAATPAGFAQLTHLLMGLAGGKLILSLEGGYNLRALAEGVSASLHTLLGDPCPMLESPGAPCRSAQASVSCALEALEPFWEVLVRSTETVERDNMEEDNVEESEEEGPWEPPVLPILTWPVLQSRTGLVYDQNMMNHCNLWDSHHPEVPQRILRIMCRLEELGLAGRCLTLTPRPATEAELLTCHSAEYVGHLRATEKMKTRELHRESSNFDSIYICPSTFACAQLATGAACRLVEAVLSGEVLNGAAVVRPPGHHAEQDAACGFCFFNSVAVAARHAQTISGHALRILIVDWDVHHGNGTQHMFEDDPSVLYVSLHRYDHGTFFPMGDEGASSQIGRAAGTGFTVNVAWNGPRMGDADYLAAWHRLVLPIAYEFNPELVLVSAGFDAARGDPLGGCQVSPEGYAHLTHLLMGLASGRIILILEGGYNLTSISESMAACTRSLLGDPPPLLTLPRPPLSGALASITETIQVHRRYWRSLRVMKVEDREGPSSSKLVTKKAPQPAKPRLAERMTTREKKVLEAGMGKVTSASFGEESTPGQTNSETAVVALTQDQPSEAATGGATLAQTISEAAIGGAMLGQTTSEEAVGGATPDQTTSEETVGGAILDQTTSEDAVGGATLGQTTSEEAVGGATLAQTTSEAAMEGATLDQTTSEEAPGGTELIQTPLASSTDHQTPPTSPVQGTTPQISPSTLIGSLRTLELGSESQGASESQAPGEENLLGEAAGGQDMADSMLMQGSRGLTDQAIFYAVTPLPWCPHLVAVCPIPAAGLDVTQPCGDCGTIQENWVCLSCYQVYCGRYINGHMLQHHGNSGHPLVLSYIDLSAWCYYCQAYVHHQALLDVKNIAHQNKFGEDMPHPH
Description: This assay is used to measure in vivo inhibition of HDAC6 in a cytoblot assay.
• 1. […] Compounds were added and incubated for 24 hours at 37° C. • 3.

HDAC4/5 = test: MEF2 reporter gene assay in HeLa cells; conditions: relative to SAHA, 24 hours
Description: (§1) HDAC subtype selectivity inhibition assay of tested compounds was carried out by several reporter gene assays experiments. Briefly, HeLa cells were seeded in 96-well plates the day before transfection to give a confluence of 50-80%. Cells were transfected with one of reporter gene plasmids containing a promoter sequences or response elements upstream of a luciferase gene construct using FuGene6 transfection reagent according to the manufacturer's instructions (Roche). The promoter or response elements including p21-promoter, gdf11-promoter, serum response element (SRE), MEF-binding element were fused upstream to the luciferase gene reporter construct. For normalizing the transfection efficiency, a GFP expression plasmid was cotransfected. Cells were allowed to express protein for 24 hours followed by addition of individual compounds or the vehicle (DMSO). 24 hours later the cells were harvested, and the luciferase assays were performed using the luciferase assay kit according to the manufacturer's instructions (Promega). To normalize the data from the luciferase assays, β-galactosidase activity from transfected cells was measured using a kit (Promega) as instructed by the manufacturer.

A549 = test: Cell proliferation (MTS), A549; conditions: Homo sapiens, 72 hours
Description: (§2) Measurement of In Vivo Cell Proliferation:
(§3) Tumor cells were trypsinized and plated into 96-well plates at 3,000 per well and incubated in complete medium with 10% FBS for 24 hours. Compounds were added over a final concentration range of 100 μmol/L to 100 nmol/L in 0.1% DMSO and incubated for 72 hours in complete medium. The effects on proliferation were determined by addition of MTS reagent (Promega) according to the instruction, incubation for 2 hours at 37° C. in CO2 incubator, and record the absorbance at 490 nm using an ELISA plate reader.

Hut-78 = test: Cell proliferation (MTS), Hut-78; conditions: Homo sapiens, HuT78, 72 hours
Description: as §2, §3

HDAC7 = molecular target: T2, HDAC7 (Homo sapiens, UniProt Q8WUI4); test: Nur77 reporter gene assay in HeLa cells; conditions: HeLa, 24 h, read-out: % of SAHA Response for HDAC7 at 10 μM (Nur77 reporter gene)
T2 construct: endogenous in cells; host or cells: HeLa
T2 sequence (Q8WUI4 1-952): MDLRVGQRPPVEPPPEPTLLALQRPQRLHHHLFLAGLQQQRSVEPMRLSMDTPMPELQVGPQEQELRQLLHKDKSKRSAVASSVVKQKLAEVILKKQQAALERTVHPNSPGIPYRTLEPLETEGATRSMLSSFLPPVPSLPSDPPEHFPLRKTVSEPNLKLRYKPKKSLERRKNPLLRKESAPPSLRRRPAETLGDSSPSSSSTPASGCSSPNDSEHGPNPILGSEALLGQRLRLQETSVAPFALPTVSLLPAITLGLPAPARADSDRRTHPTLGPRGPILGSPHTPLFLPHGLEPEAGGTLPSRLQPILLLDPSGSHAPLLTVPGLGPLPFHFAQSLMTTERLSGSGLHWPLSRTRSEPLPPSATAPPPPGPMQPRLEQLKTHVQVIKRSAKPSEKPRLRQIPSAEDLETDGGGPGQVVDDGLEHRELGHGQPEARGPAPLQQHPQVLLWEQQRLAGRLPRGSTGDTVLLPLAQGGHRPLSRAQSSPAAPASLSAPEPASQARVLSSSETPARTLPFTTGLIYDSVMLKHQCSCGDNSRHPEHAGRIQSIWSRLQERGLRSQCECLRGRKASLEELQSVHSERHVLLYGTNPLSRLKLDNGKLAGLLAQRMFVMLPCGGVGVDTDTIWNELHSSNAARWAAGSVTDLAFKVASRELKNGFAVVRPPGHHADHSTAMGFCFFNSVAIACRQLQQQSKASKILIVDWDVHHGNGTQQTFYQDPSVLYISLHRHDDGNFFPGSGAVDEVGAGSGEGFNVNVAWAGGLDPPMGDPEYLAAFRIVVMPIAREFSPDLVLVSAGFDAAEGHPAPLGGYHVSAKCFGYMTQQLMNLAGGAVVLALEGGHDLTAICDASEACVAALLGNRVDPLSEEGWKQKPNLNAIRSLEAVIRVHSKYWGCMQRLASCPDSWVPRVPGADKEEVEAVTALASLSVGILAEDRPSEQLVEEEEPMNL
Description: as §1

Nc1cc(F)ccc1NC(=O)CCCCCNC(=O)C=C1c2ccccc2-c2ccccc21 [Example 12, 6-(2-(9H-fluoren-9-ylidene)acetamido)-N-(2-amino-4-fluorophenyl)hexanamide]
Fold of tubulin acetylation (HDAC7 at 10 μM) [1]: 0.79 Fold | % of SAHA Response for HDAC4/5 at 10 μM (MEF2 reporter gene) (HDAC4/5): 101% | GI50 (A549): 18.2 µM | GI50 (Hut-78): 3.89 µM | activation at 10 µM (HDAC7): 38%

Nc1ccccc1NC(=O)CCCCCNC(=O)C=C1c2ccccc2-c2ccccc21 [Example 13, 6-(2-(9H-fluoren-9-ylidene)acetamido)-N-(2-aminophenyl)hexanamide]
Fold of tubulin acetylation (HDAC7 at 10 μM) [1]: 0.74 Fold | % of SAHA Response for HDAC4/5 at 10 μM (MEF2 reporter gene) (HDAC4/5): 118% | GI50 (A549): 4.9 µM | GI50 (Hut-78): 1.35 µM | activation at 10 µM (HDAC7): 66%
